Reference: US5258385A, “β-Carboline-derived compounds, lamchart benzodiazepine-receptor ligands, having an inverse agonist and antagonist effect on benzodiazepines, and drugs containing them” (Centre National de la Recherche Scientifique (CNRS), priority 1991, dated 1993)

Tests used:
benzodiazepine receptor [1] = assay: In vivo behavior and antagonism of diazepam sedation in mice; settings: sc
Method: The antagonist properties of the lactone were also assessed in vivo in mice.

benzodiazepine receptor [2] = assay: In vitro binding to benzodiazepine receptor, displacement of 3H-flunitrazepam, rat brain cortical membranes
benzodiazepine receptor [3] = assay: Effect on current in xenopus oocyte expressing the benzodiazepine receptor (mRNA); format: cell-based
Text: The effect of the lactone on the benzodiazepine receptor expressed was first expressed, using the corresponding messenger RNA, in xenopus oocyte.

[4] = anxiolytic, anti-convulsant and the like; cited from earlier work
[5] = test system: learning and information retention; settings: man; cited from earlier work
[6] = target: central receptors for benzodiazepines; settings: in vitro, rat brain; read-out: IC50 binding to central receptors for benzodiazepines; cited from earlier work
[7] = test system: convulsions caused by other agents such as pentylenetetrazole; settings: cited from earlier work
learning and memory = settings: cited from earlier work

In the case of `O=C1OC(CO)c2c1ncc1[nH]c3ccccc3c21` (stereo not drawn) [Compound No. 3, 10-Hydroxymethylbutanolide[2.3-]-β-Carboline], the “convulsant or sedative effect in mice” value (benzodiazepine receptor [1]; 5 mg/kg) is reported as “neither convulsant nor sedative”, the “effect on behavior of mice” value (benzodiazepine receptor [1]; 5 mg/kg) is reported as “produces no effect on their behavior” and the “antagonism of sedation caused by diazepam” value (benzodiazepine receptor [1]; compound 5 or 10 mg/kg, diazepam 7.5 mg/kg) is reported as “completely avoided”. For the same compound, the “affinity relative to diazepam (20 nM)” value (benzodiazepine receptor [2]; times higher than diazepam) was 100 times, the “affinity relative to β-CCE (4 nM)” value (benzodiazepine receptor [2]; times higher than β-CCE) was 20 times and the “effect on GABA-generated current in oocyte” value (benzodiazepine receptor [3]; lactone (10^6 M [sic]) simultaneously with 10^5 M (so in the source) GABA) was “no increase or decrease was observed in the current”. For the same compound, the “inhibition of the increase in current generated by diazepam” value (benzodiazepine receptor [3]; lactone (10^6 M [sic]), diazepam (10^6 M [sic])) was “inhibits substantially the increase in the current” and the “receptor profile in oocyte test” value (benzodiazepine receptor [3]; with GABA) was “behaves, in this test, like an antagonist of the benzodiazepine receptor”.
For `CCOC(=O)c1ncc2[nH]c3cccc(OCc4ccccc4)c3c2c1COC` [ZK 91296], the “properties in vivo compared with diazepam” value [4] is listed as “properties similar to those of diazepam in vivo”.
For `CCOC(=O)c1ncc2[nH]c3ccc(OCc4ccccc4)cc3c2c1COC` [ZK 93423], the “properties in vivo compared with diazepam” value [4] is given as “properties similar to those of diazepam in vivo”.
For `CCOC(=O)c1ncc2[nH]c3cccc(OC(C)C)c3c2c1C` [ZK 93426], the “learning and information retention” value [5] is listed as “improve learning and information retention in man”.
In the case of `CCOC(=O)c1cc2c(cn1)[nH]c1ccccc12` [β-CCE, ethyl ester of β-carboline-3-carboxylic acid], the IC50 [6] is given as 4 nM, the “in vivo pharmacological effects compared with benzodiazepines” value ([7]; in vivo) is given as “opposed to those of benzodiazepines” and the proconvulsant effect ([7]; mice) is given as “proconvulsant in mice which facilitates the convulsions caused by other agents such as pentylenetetrazole”.
For `COC(=O)c1cc2c(cn1)[nH]c1ccccc12` [β-CCM], the “effect on learning and memory” value (learning and memory; in vivo) is listed as “positive effect on learning and memory” and the convulsant activity (learning and memory; prevented testing in man) is listed as “highly convulsant activity”.
